In patent publication US8188135B2, “Compounds as cannabinoid receptor ligands” (priority 2008, dated 2012):
Several values for one entry are separate records, joined by “and”; a condition that tells them apart may be missing. Identical values can stand only once. Like-named read-outs stand apart in the source and are kept apart here.

What was measured:
[1] = target: T1, Rat CB1 (Rattus norvegicus, UniProt P20272); experiment: rat CB1 cyclase functional assay (HitHunter cAMP); format: cell-based; conditions: HEK cells, forskolin 37 μM
T1 construct: expressed in transfected cells; host or cells: HEK
Description: (§1) The cyclase functional assays were performed using the HitHunter™ cAMP assay kit from DiscoveRx (Fremont, Calif.) according to vendor's protocol. Briefly, HEK cells expressing CB2 or CB1 receptors (rat or human) were detached using cell dissociation buffer (Invitrogen, Carlsbad, Calif.), dispersed and placed in suspension at 10,000 cells per well in 96 well plates prior to the assay. Cell suspensions were incubated at 37° C. for 20 min with variable concentrations of test ligands and or 10 μM CP 55,940-positive control in the presence of a fixed concentration of forskolin (18 μM for rat CB2 and 37 μM for rat CB1) in Dulbescco's phosphate-buffered saline (Invitrogen, Carlsbad, Calif.) supplemented with bovine serum albumin (0.01% final concentration). The reactions were terminated by the addition of lysis buffer and the luminescence was detected following the procedure according to the manufacturer's instructions. EC50 values were calculated using sigmoidal dose-response curve fitting from Prism (GraphPad).

[2] = target: T2, human CB2 receptors (Homo sapiens, UniProt P34972); experiment: human CB2 radioligand binding assay ([3H]CP 55,940 competition); conditions: HEK293 membranes, 0.5 nM [3H]CP 55,940
T2 construct: expressed in transfected cells; host or cells: HEK293
Outline: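 Displacement of 0.5 nM [3H]CP 55,940 over 0.01 nM-10 μM test compound, measured on human CB2 membranes from stably transfected HEK293 cells. Incubation 90 min at 30 °C in Tris/EDTA/MgCl2/BSA, pH 7.4, then filter-bound radioactivity counted; 10 μM unlabeled CP 55,940 defined nonspecific binding.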

[3] = target: T3, rat CB2 (Rattus norvegicus, UniProt Q9QZN9); experiment: rat CB2 radioligand binding assay ([3H]CP 55,940 competition); design: expressed in transfected cells; host or cells: HEK293; conditions: HEK293 membranes, 0.5 nM [3H]CP 55,940
T3 sequence (Q9QZN9 1-360): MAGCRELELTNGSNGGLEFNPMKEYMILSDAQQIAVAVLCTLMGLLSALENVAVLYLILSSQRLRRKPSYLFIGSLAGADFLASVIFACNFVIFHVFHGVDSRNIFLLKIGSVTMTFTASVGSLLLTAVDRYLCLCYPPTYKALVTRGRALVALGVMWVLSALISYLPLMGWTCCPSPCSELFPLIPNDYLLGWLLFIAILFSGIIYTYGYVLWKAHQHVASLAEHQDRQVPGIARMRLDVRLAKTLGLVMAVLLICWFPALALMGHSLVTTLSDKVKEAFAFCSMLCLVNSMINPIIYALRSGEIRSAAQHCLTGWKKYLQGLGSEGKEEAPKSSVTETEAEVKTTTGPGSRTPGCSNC
Outline: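 Competition binding against 0.5 nM [3H]CP 55,940 (pH 7.4 buffer with 0.5 mg/mL BSA, 30 °C, 45 min), with displacers spanning 0.01 nM–10 μM at five concentrations. Receptor source: stably transfected HEK293 membranes, 20 μg/well. Nonspecific binding defined by 10 μM unlabeled CP 55,940; readout by filtration and counting.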

[4] = target: T3, rat CB2; experiment: rat CB2 cyclase functional assay (HitHunter cAMP); format: cell-based; design: expressed in transfected cells; host or cells: HEK; conditions: rat CB2 cyclase (EC50, nM), HEK cells, forskolin 18 μM
Description: as §1

[5] = pharmacokinetic studies in rats; conditions: male, Sprague-Dawley, rat; for half-life: in vivo, 3 micromole/kg; for half-life / clearance: iv; for bioavailability: po
Description: Male Sprague-Dawley rats, weighing 250-400 g, were obtained from Charles Rivers Laboratories. Pharmacokinetic studies were conducted in three groups of rats; each group contained three animals. All groups were dosed with a solution formulation. The first group of three rats received an intravenous dose, administered under isoflurane anesthetic. The second group received an intraperitoneal dose and the third group received an oral dose, administered by gavage. Sequential blood samples were obtained from a tail vein of each animal for 8-24 hours after dosing. Plasma was separated by centrifugation and stored frozen until analysis.
Half life […] and plasma clearance values are based on intravenous administration (3 micromole/kg).
Half life (t1/2) and plasma clearance values are based on intravenous administration (3 micromole/kg).

[6] = read-out: Rat CB1 cyclase (EC50)

T1 sequence (P20272 whole entry): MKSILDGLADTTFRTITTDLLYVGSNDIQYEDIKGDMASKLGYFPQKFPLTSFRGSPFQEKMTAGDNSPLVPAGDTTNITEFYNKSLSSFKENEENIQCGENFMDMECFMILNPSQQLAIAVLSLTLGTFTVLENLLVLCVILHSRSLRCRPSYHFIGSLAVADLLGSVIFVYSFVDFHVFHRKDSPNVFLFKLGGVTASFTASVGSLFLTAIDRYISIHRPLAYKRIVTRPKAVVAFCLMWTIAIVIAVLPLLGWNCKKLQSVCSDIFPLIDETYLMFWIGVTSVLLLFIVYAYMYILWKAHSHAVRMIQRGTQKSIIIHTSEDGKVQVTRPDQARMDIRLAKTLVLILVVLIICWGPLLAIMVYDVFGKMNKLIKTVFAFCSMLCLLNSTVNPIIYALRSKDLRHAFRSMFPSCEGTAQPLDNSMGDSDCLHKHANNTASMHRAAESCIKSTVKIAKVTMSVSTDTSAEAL
T2 sequence (P34972 whole entry): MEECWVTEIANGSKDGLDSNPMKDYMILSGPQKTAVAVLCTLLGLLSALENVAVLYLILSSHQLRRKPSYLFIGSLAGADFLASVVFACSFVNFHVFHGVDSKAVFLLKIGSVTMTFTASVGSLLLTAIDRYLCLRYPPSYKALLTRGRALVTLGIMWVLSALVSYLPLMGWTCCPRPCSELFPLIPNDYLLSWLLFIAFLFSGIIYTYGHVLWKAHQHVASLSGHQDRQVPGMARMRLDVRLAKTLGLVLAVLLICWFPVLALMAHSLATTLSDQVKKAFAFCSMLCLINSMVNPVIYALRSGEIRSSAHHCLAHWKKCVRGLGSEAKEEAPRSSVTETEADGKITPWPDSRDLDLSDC

SMILES	EC50 ([1]; Rat CB1 cyclase (EC50, nM))	Ki ([2]; human CB2 (Ki, nM))	Ki ([3]; rat CB2 (Ki, nM))	EC50 [4]	EC50 [1, 6]	Ki ([2]; read-out: human CB2 (Ki))	half-life [5]	clearance [5]	bioavailability [5]	Ki ([3]; read-out: rat CB2 (Ki))
CC(=O)NCCOc1ccc(C(F)(F)F)cc1C(=O)/N=c1\cc(C(C)(C)C)n(C)n1C[C@H]1CCCO1 [Example 78, 2-[2-(acetylamino)ethoxy]-N-{(3E)-5-tert-butyl-1-methyl-2-[(2R)-tetrahydrofuran-2-ylmethyl]-1,2-dihydro-3H-pyrazol-3-ylidene}-5-(trifluoromethyl)benzamide]	8880 nM	15 nM	18 nM	1.9 nM						
Cn1c(C(C)(C)C)c/c(=N\C(=O)c2cc(C(F)(F)F)ccc2OC[C@@H]2CCN2S(C)(=O)=O)n1CC1CC1 [Example 63, N-[(3E)-5-tert-butyl-2-(cyclopropylmethyl)-1-methyl-1,2-dihydro-3H-pyrazol-3-ylidene]-2-{[(2S)-1-(methylsulfonyl)azetidin-2-yl]methoxy}-5-(trifluoromethyl)benzamide]	> 27000 nM	301 nM	139 nM	2.5 nM						
CN1CCC[C@H]1COc1ccc(C(F)(F)F)cc1C(=O)/N=C1\SC(C)(C)CN1C[C@H]1CCCO1 [Example 33, N-{(2Z)-5,5-dimethyl-3-[(2R)-tetrahydrofuran-2-ylmethyl]-1,3-thiazolidin-2-ylidene}-2-{[(2S)-1-methylpyrrolidin-2-yl]methoxy}-5-(trifluoromethyl)benzamide]	5380 nM	23 nM	20 nM	0.09 nM						
CN1CCC[C@H]1COc1ccc(C(F)(F)F)cc1C(=O)/N=c1\sc(C(C)(C)C)nn1C[C@H]1CCCO1 [Example 69, N-[(2Z)-5-tert-butyl-3-[(2R)-tetrahydrofuran-2-ylmethyl]-1,3,4-thiadiazol-2(3 H)-ylidene]-2-{[(2S)-1-methylpyrrolidin-2-yl]methoxy}-5-(trifluoromethyl)benzamide]		10 nM and 14 nM	19 nM and 5 nM	0.93 nM and 0.16 nM						
Cn1c(C(C)(C)C)c/c(=N\C(=O)c2cc(C(F)(F)F)ccc2OC[C@H]2CCCO2)n1C[C@H]1CCCO1 [Example 1, N-{(3E)-5-tert-butyl-1-methyl-2-[(2R)-tetrahydrofuran-2-ylmethyl]-1,2-dihydro-3H-pyrazol-3-ylidene}-2-[(2R)-tetrahydrofuran-2-ylmethoxy]-5-(trifluoromethyl)benzamide]	5510 nM	51 nM	23 nM	1.1 nM						
Cn1c(C(C)(C)C)c/c(=N\C(=O)c2cc(C(F)(F)F)ccc2OC[C@@H]2CCCO2)n1CC1CC1 [Example 27, N-[(3E)-5-tert-butyl-2-(cyclopropylmethyl)-1-methyl-1,2-dihydro-3H-pyrazol-3-ylidene]-2-[(2S)-tetrahydrofuran-2-ylmethoxy]-5-(trifluoromethyl)benzamide]	3370 nM	23 nM	9.4 nM	0.2 nM						
Cn1c(C(C)(C)C)c/c(=N\C(=O)c2cc(C(F)(F)F)ccc2OCC[C@H]2COC(C)(C)O2)n1C[C@H]1CCCO1 [Example 17, N-{(3E)-5-tert-butyl-1-methyl-2-[(2R)-tetrahydrofuran-2-ylmethyl]-1,2-dihydro-3H-pyrazol-3-ylidene}-2-{2-[(4S)-2,2-dimethyl-1,3-dioxolan-4-yl]ethoxy}-5-(trifluoromethyl)benzamide]	> 27000 nM	25 nM	36 nM	0.7 nM						
Cn1c(C(C)(C)C)c/c(=N\C(=O)c2cc(C(F)(F)F)ccc2OC[C@@H]2CCC(=O)N2)n1C[C@H]1CCCO1 [Example 12, N-{(3E)-5-tert-butyl-1-methyl-2-[(2R)-tetrahydrofuran-2-ylmethyl]-1,2-dihydro-3H-pyrazol-3-ylidene}-2-{[(2S)-5-oxopyrrolidin-2-yl]methoxy}-5-(trifluoromethyl)benzamide]	> 27000 nM	99 nM	46 nM	0.79 nM						
Cn1c(C(C)(C)C)c/c(=N\C(=O)c2cc(C(F)(F)F)ccc2OCC(O)CO)n1C[C@H]1CCCO1 (stereo partly drawn) [Example 42]	6100 nM	20 nM	11 nM	0.34 nM						
CCCCn1nc(C(C)(C)C)s/c1=N\C(=O)c1cc(C(F)(F)F)ccc1OCC1CCCCN1C (stereo not drawn) [Example 7, N-[(2Z)-3-butyl-5-tert-butyl-1,3,4-thiadiazol-2(3H)-ylidene]-2-[(1-methylpiperidin-2-yl)methoxy]-5-(trifluoromethyl)benzamide]	1060 nM	2.5 nM	2.5 nM	2.9 nM						
Cn1c(C(C)(C)C)c/c(=N\C(=O)c2cc(C(F)(F)F)ccc2OC[C@@H]2CCC(=O)N2)n1CC1CCC1 [Example 120, N-[(3E)-5-tert-butyl-2-(cyclobutylmethyl)-1-methyl-1,2-dihydro-3H-pyrazol-3-ylidene]-2-{[(2S)-5-oxopyrrolidin-2-yl]methoxy}-5-(trifluoromethyl)benzamide]			61 nM		> 27000 nM	116 nM				
Cn1c(C(C)(C)C)c/c(=N\C(=O)c2cc(C(F)(F)F)ccc2OCC(C)(C)O)n1CC1CC1 [Example 71, N-[(3E)-5-tert-butyl-2-(cyclopropylmethyl)-1-methyl-1,2-dihydro-3H-pyrazol-3-ylidene]-2-(2-hydroxy-2-methylpropoxy)-5-(trifluoromethyl)benzamide]	4280 nM	38 nM	8.5 nM				4.7 h	5 mL/min/kg	46%	
CCCCCn1/c(=N/C(=O)c2cc(C#N)ccc2OCC(C)(C)O)cc(C(C)(C)C)n1C [Example 115, N-[(3E)-5-tert-butyl-1-methyl-2-pentyl-1,2-dihydro-3H-pyrazol-3-ylidene]-5-cyano-2-(2-hydroxy-2-methylpropoxy)benzamide]		81 nM	17 nM		> 27000 nM		0.6 h	30 mL/min/kg	7%	
CCCCn1cc(C(C)(C)C)o/c1=N\C(=O)c1cc(C(F)(F)F)ccc1OC[C@@H]1CCCN1C [Example 76, N-[(2Z)-3-butyl-5-tert-butyl-1,3-oxazol-2(3H)-ylidene]-2-{[(2S)-1-methylpyrrolidin-2-yl]methoxy}-5-(trifluoromethyl)benzamide]					2030 nM	176 nM				243 nM
C[C@@H](O)COc1ccc(C(F)(F)F)cc1C(=O)/N=c1\cc(C(C)(C)C)n(C)n1C[C@H]1CCCO1 [Example 91, N-{(3E)-5-tert-butyl-1-methyl-2-[(2R)-tetrahydrofuran-2-ylmethyl]-1,2-dihydro-3 H-pyrazol-3-ylidene}-2-{[(2R)-2-hydroxypropyl]oxy}-5-(trifluoromethyl)benzamide]		38 nM	18 nM		> 27000 nM		2.5 h	31.7 mL/min/kg	33%	
Cn1c(C(C)(C)C)c/c(=N\C(=O)c2cc(C#N)ccc2OCC(C)(C)O)n1CC1CCC1 [Example 113, N-[(3E)-5-tert-butyl-2-(cyclobutylmethyl)-1-methyl-1,2-dihydro-3H-pyrazol-3-ylidene]-5-cyano-2-(2-hydroxy-2-methylpropoxy)benzamide]		54 nM	28 nM		> 27000 nM		3.4 h	20 mL/min/kg	100%	
